# Assay results published in PMC12530842, “Potent, Selective, and Drug‐Like G Protein‐Coupled Receptor Kinase 5 and 6 Inhibitors: Design, Synthesis, and X‐Ray Structural Studies” (Chemmedchem, 2025).
# Legend:
# Format in all cases: biochemical
# [1] = biological target: T1, GRK5 (Homo sapiens, UniProt P34947); experiment: GRK5 kinase inhibition assay, phosphorylation of tubulin ([γ-32P]-ATP); conditions: for Selectivity GRK2/GRK5: fold selectivity for GRK5 over GRK2; for IC50: phosphorylation of the soluble substrate tubulin, ± standard deviation from 3 to 4 independent experiments
# T1 construct: Human GR K5 (residues 1- 590) w ild- type and D 311N mutant w ere expressed in E. co li Rosetta; His tag (inferred from nickel-NTA purification); made in house; host or cells: E. coli Rosetta (DE3)
# T1 sequence (P34947 whole entry, the tested form may be a part): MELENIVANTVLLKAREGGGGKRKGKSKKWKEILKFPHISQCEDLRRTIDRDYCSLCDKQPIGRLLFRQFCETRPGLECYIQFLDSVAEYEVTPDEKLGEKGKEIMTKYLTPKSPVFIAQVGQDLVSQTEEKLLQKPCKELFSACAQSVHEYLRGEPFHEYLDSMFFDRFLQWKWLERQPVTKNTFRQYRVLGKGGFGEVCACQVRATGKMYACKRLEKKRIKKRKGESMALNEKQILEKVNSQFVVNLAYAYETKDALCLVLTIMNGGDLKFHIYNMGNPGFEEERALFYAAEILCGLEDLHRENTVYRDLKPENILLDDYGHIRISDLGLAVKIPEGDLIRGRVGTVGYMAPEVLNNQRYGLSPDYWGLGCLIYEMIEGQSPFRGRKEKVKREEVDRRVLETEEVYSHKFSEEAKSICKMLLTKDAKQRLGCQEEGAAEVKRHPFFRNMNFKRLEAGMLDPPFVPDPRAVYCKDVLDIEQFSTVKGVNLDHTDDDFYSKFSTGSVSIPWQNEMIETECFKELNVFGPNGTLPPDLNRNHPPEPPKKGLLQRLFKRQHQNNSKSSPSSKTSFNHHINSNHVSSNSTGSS
# Experimental: (§1) The inhibitory potency of synthetic compounds containing the N‐heterocyclic amide functionalities was evaluated against human GRK2, GRK5 and GRK6 using our in vitro assays‐, as reported previously.^[ [35], [37] ^] […] We then investigated the effect of (R)‐ and (S)‐Boc pyrrolidine carboxamide derivatives. […] These improvements of GRK5 IC50 values over their Boc‐derivatives (6c and 6d) indicated the bulky Boc group may not be able to fit as well in the catalytic site of these GRKs. On the other hand, sterically less demanding acetamide derivatives 6e and 6f were well accommodated consistent with their very good activity against GRK5, GRK6, and GRK2, but only with marginal selectivity against GRK2. […] We also examined the effect of 3(S)‐ and 3(R)‐Boc‐pyrrolidine derivatives.
# (§2) Protein expression and purification.
# (§3) Human GR K5 (residues 1- 590) w ild- type and D 311N mutant w ere expressed in E. co li Rosetta (D E3) and purified v ia nickel-nitrilotriacetic acid affinity chromatography, followed by tandem columns consisting of a HiTrap Q HP anion exchange chromatography column and a HiTrap SP HP cation exchange chromatography column, and finished by Superdex 200 Increase size -exclusion chromatography, as described previously. Human GRK6 (with T10A and mutations that eliminate palmitoylation sites) was expressed in Sf9 insect cells [ 2] and was purified w ith the same protocol for GR K5 [1]. Human GRK2 w as purified as described previously.
# (§4) Kinase inhibition Assays.
# (§5) Inhibit ion assays were conducted in a reaction mixture containing 20 mM H EPES pH 7. 0, 2 mM MgC l2, and 0.025% n- dodecyl-β-D-maltoside. Prior to reaction initiation, GR K5 or GR K6 at 50 nM was mixed w ith porcine brain tubulin ( PurSolutions) at a concentration of 500 nM. The assay w as started w ith a 30- second incubation of inhibitors, followed by the add it ion of 5 μ M ATP supplemented w ith radioactive [γ-32P]-AT P a t 60 C i/m mol (PerkinElm er Life Sciences). Re actions pro ceeded for 5 m inut es at ro o m te mpera ture a nd were terminated by adding 4X SDS loading buffer. T he reaction mixtures were then s eparated via SDS - PAG E, dried, and exposed using a phosphor imaging screen. Quantification was performed using a Personal Molecular Imager and Quantity One 1- D Analysis Software. Analogous inhibition assays were conducted on p urified GR K2 wit h a t ub ulin conce ntrat ion of 1 μ M. Data ana lysis was perf orme d usin g Graph Pa d Pr ism, and IC50 values wer e calculated based on three- parameter dose- dependent curves (with a Hill coefficient fixed at 1) plotting phosphate transfer against inhibitor concentration. At least three replicates were conducted to determine the mean and standard deviation of IC50 values as published previously . […]
# (§6) (6) The final models w ere validated with MolProbity prior to depos ition along with structure factors in the Protein Data Bank. Atomic figures were created with Py mol (7). Cr ystallographic statistics are reported in Supplemental Table 1. Coordinates for inh ib itor 6t (GRL-098- 22) w ere deposited in the Protein Data Bank, with accession code 9BR K.
# (§7) 1. Y. Chen, A. Sonawane, R. Manda, R. K. G adi, J. J. G. Tesmer, A. K. Ghosh. Development of a new class of potent and highly select ive G protein- coupled r eceptor kinase 5 inhibitors and structural insight from crystal structures of inhibitor complexes. Eur. J. Med. Chem. 2024, 264, 115931.
# (§8) 2. D. T. Lodowski, V. M. T esmer, J. L. Benovic, J. J. Tesmer. The structure of G protein- coupled receptor kinase (GRK)-6 defines a second lineage of GRKs. J. Bio l. C he m. 2006, 281,16785- 16793.
# [2] = biological target: T2, GRK6 (Homo sapiens, UniProt P43250, C561S/C562S/C565S/T10A); experiment: GRK6 kinase inhibition assay, phosphorylation of tubulin ([γ-32P]-ATP); conditions: for Selectivity GRK5/GRK6: fold selectivity for GRK6 over GRK5; for IC50: phosphorylation of the soluble substrate tubulin, ± standard deviation from 3 to 4 independent experiments
# T2 construct: His tag (inferred: purified by the GRK5 protocol, which starts with nickel-NTA); made in house; host or cells: Sf9 insect cells
# T2 sequence (P43250 whole entry T10A/C561S/C562S/C565S): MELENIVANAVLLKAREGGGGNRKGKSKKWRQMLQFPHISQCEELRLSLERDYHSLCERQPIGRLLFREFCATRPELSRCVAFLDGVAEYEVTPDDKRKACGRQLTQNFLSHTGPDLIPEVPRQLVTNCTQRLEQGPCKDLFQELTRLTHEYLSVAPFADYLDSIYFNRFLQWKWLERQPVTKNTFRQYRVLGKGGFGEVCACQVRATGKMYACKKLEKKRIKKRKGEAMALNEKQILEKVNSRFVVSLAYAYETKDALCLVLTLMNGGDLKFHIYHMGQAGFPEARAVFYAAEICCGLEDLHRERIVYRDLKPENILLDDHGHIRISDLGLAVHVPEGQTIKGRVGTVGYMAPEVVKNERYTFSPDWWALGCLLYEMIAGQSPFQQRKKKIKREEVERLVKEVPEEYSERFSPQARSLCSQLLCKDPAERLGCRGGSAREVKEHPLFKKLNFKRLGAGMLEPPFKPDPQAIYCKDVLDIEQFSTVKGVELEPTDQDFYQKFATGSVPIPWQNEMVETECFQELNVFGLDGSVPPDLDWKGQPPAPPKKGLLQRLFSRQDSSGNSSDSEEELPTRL
# Experimental: as §1, §2, §3, §4, §5, §6, §7, §8
# [3] = biological target: T3, GRK2 (Homo sapiens, UniProt P25098); experiment: GRK2 kinase inhibition assay, phosphorylation of tubulin ([γ-32P]-ATP); conditions: phosphorylation of the soluble substrate tubulin; ± standard deviation from 3 to 4 independent experiments
# T3 construct: made in house
# T3 sequence (P25098 1-689): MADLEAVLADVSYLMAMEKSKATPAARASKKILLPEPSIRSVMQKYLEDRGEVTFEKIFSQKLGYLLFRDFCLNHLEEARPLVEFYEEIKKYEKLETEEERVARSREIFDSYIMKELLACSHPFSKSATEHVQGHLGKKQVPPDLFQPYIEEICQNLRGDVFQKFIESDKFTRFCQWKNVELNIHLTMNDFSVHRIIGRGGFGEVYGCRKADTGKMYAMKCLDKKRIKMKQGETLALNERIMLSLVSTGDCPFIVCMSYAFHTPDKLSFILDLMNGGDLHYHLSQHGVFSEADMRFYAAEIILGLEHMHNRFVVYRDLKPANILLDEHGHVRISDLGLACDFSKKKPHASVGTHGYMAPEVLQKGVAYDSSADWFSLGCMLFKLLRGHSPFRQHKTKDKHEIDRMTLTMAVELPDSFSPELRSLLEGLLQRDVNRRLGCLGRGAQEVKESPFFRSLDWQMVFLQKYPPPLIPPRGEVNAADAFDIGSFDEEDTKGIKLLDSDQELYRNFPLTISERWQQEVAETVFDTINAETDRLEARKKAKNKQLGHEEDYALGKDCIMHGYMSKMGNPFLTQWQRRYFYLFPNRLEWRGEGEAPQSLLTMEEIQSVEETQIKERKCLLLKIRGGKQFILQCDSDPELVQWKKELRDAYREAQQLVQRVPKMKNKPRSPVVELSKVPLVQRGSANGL
# Experimental: as §1, §2, §3, §4, §5, §6, §7, §8
Selectivity GRK2/GRK5 [1] [fold],IC50 [1] [nM],Selectivity GRK5/GRK6 [2] [fold],IC50 [2] [nM],IC50 [3] [µM],fold reduction of GRK5 activity ([1]; in comparison with compound 6a) [fold],"selectivity over GRK2 ([1]; GRK5 vs GRK2, as stated in text)",fold enhanced GRK5 inhibitory activity ([1]; over the (R)-Boc derivative 6c),Structure (SMILES)
>1000,1000 ± 600,1,880 ± 50,> 1000,,,,"Cc1[nH]c(/C=C2\C(=O)Nc3ccc(C(=O)N[C@H](C)c4ccc(F)cc4)cc32)c(C)c1NC(=O)[C@H]1CCN(C(=O)OC(C)(C)C)C1 [6l, Tert‐Butyl(S)‐3‐((5‐(((Z)‐5‐(((R)‐1‐(4‐Fluorophenyl)Ethyl)Carbamoyl)‐2‐Oxoindolin‐3‐Ylidene)Methyl)‐2,4‐Dimethyl‐1H‐Pyrrol‐3‐Yl)Carbamoyl)Pyrrolidine‐1‐Carboxylate]"
66,94 ± 10,1,150 ± 60,6.2 ± 3,,,,"Cc1[nH]c(/C=C2\C(=O)Nc3ccc(C(=O)N[C@H](C)c4ccc(F)cc4)cc32)c(C)c1NC(=O)[C@H]1CCCN(C(=O)OC(C)(C)C)C1 [6o, Tert‐Butyl(S)‐3‐((5‐(((Z)‐5‐(((R)‐1‐(4‐Fluorophenyl)Ethyl)Carbamoyl)‐2‐Oxoindolin‐3‐Ylidene)Methyl)‐2,4‐Dimethyl‐1H‐Pyrrol‐3‐Yl)Carbamoyl)Piperidine‐1‐Carboxylate]"
1500,410 ± 100,1,340 ± 300,610 ± 450,,over 1500 fold,,"Cc1[nH]c(/C=C2\C(=O)Nc3ccc(C(=O)N[C@H](C)c4ccc(F)cc4)cc32)c(C)c1NC(=O)[C@@H]1CCCN(C(=O)OC(C)(C)C)C1 [6p, Tert‐Butyl(R)‐3‐((5‐(((Z)‐5‐(((R)‐1‐(4‐Fluorophenyl)Ethyl)Carbamoyl)‐2‐Oxoindolin‐3‐Ylidene)Methyl)‐2,4‐Dimethyl‐1H‐Pyrrol‐3‐Yl)Carbamoyl)Piperidine‐1‐Carboxylate]"

# Continued, molecule first:
Structure (SMILES),Selectivity GRK2/GRK5 [1] [fold],IC50 [1] [nM],Selectivity GRK5/GRK6 [2] [fold],IC50 [2] [nM],IC50 [3] [µM],fold reduction of GRK5 activity ([1]; in comparison with compound 6a) [fold],"selectivity over GRK2 ([1]; GRK5 vs GRK2, as stated in text)",fold enhanced GRK5 inhibitory activity ([1]; over the (R)-Boc derivative 6c)
"Cc1[nH]c(/C=C2\C(=O)Nc3ccc(C(=O)N[C@H](C)c4ccc(F)cc4)cc32)c(C)c1NC(=O)[C@@H]1CCC(=O)N1 [6a, (Z)‐3‐((3,5‐Dimethyl‐4‐((S)‐5‐Oxopyrrolidine‐2‐Carboxamido)‐1H‐Pyrrol‐2‐Yl)Methylene)‐N‐((R)‐1‐(4‐Fluorophenyl)Ethyl)‐2‐Oxoindoline‐5‐Carboxamide]",26,27 ± 6,1,20 ± 10,0.71 ± 0.4,,,
"Cc1[nH]c(/C=C2\C(=O)Nc3ccc(C(=O)N[C@H](C)c4ccc(F)cc4)cc32)c(C)c1NC(=O)[C@@H]1CCCCN1C(=O)OC(C)(C)C [6n, Tert‐Butyl(S)‐2‐((5‐(((Z)‐5‐(((R)‐1‐(4‐Fluorophenyl)Ethyl)Carbamoyl)‐2‐Oxoindolin‐3‐Ylidene)Methyl)‐2,4‐Dimethyl‐1H‐Pyrrol‐3‐Yl)Carbamoyl)Piperidine‐1‐Carboxylate]",3,33000 ± 6000,37,900 ± 800,100 ± 70,,,
"CC(=O)N1CCCC1C(=O)Nc1c(C)[nH]c(C=C2C(=O)Nc3ccc(C(=O)NC(C)c4ccc(F)cc4)cc32)c1C [6f, ((Z)‐3‐((4‐((S)‐1‐Acetylpyrrolidine‐2‐Carboxamido)‐3,5‐Dimethyl‐1H‐Pyrrol‐2‐Yl)Methylene)‐N‐((R)‐1‐(4‐Fluorophenyl)Ethyl)‐2‐Oxoindoline‐5‐Carboxamide]",15,60 ± 20,2,31 ± 20,0.9 ± 0.3,,,
"Cc1[nH]c(/C=C2\C(=O)Nc3ccc(C(=O)N[C@H](C)c4ccc(F)cc4)cc32)c(C)c1NC(=O)[C@@H]1CCCN1 [6h, (Z)‐3‐((3,5‐Dimethyl‐4‐((S)‐pyrrolidine‐2‐carboxamido)‐1H‐pyrrol‐2‐yl)methylene)‐N‐((R)‐1‐(4‐fluorophenyl)ethyl)‐2‐oxoindoline‐5‐carboxamide]",1,90 ± 40,3,34 ± 10,0.08 ± 0.01,,,
"Cc1[nH]c(/C=C2\C(=O)Nc3ccc(C(=O)N[C@H](C)c4ccc(F)cc4)cc32)c(C)c1NC(=O)[C@H]1CCCCN1C(=O)OC(C)(C)C [6m, Tert‐Butyl(R)‐2‐((5‐(((Z)‐5‐(((R)‐1‐(4‐Fluorophenyl)Ethyl)Carbamoyl)‐2‐Oxoindolin‐3‐Ylidene)Methyl)‐2,4‐Dimethyl‐1H‐Pyrrol‐3‐Yl)Carbamoyl)Piperidine‐1‐Carboxylate]",2,500 ± 100,,2500 ± 400,1.2 ± 0.4,,,
"Cc1[nH]c(/C=C2\C(=O)Nc3ccc(C(=O)N[C@H](C)c4ccc(F)cc4)cc32)c(C)c1NC(=O)[C@H]1CCC(=O)N1 [6b, (Z)‐3‐((3,5‐Dimethyl‐4‐((R)‐5‐Oxopyrrolidine‐2‐Carboxamido)‐1H‐Pyrrol‐2‐Yl)Methylene)‐N‐((R)‐1‐(4‐Fluorophenyl)Ethyl)‐2‐Oxoindoline‐5‐Carboxamide]",3,800 ± 400,30,28 ± 2,2.1 ± 0.2,30,,
"Cc1[nH]c(/C=C2\C(=O)Nc3ccc(C(=O)N[C@H](C)c4ccc(F)cc4)cc32)c(C)c1NC(=O)[C@H]1CCCN1 [6g, (Z)‐3‐((3,5‐Dimethyl‐4‐((R)‐Pyrrolidine‐2‐Carboxamido)‐1H‐Pyrrol‐2‐yl)Methylene)‐N‐((R)‐1‐(4‐Fluorophenyl)Ethyl)‐2‐Oxoindoline‐5‐Carboxamide]",3,40 ± 20,1,30 ± 2,0.1 ± 0.01,,,
"Cc1[nH]c(/C=C2\C(=O)Nc3ccc(C(=O)N[C@H](C)c4ccc(F)cc4)cc32)c(C)c1NC(=O)[C@@H]1CCCN1C(=O)OC(C)(C)C [6d, Tert‐Butyl(S)‐2‐((5‐(((Z)‐5‐(((R)‐1‐(4‐Fluorophenyl)Ethyl)Carbamoyl)‐2‐Oxoindolin‐3‐Ylidene)Methyl)‐2,4‐Dimethyl‐1H‐Pyrrol‐3‐Yl)Carbamoyl)Pyrrolidine‐1‐Carboxylate]",>2000,440 ± 160,,9900 ± 2000,> 1000,,,over 100 fold
